One series has as its system rat pituitary cells. It is filed as cell-based. The protocol:
The biological activity of the novel peptides were compared with that of a synthetic standard of the natural sequence of GRF(1-44)-NH2 (SEQ ID NO: 1-NH2) which was isolated from a human pancreatic tumor of an individual suffering from acromegaly (Salk Institute standard hp-GRF-NH2 (NL-A-10)). The assay for biological activity, which is based on the ability to stimulate production of growth hormone in rat pituitary cells in tissue culture, was performed in the following manner. Pituitaries from 30-40 male Sprague-Dawley rats (175 g) were removed aseptically after decapitation. The anterior lobes were collected, washed 3 times in sterile Hepes buffer (0.025M)(pH 7.35) and dispersed at 37° C. in 20-30 ml Hepes buffer (pH 7.35) containing collagenase (4 mg per ml) and Dispase (Protease grande II, 2 mg per ml). After gentle 80 min. vortexing and trituration by Pasteur pipette, the dispersed cells were separated by centrifugation (150×g, 4 min.) and re-suspended in Hepes buffer containing neuraminidase (4 mg/ml), and […] ethylenediaminetetraacetic acid (EDTA) disodium salt pH 7.35, for 10 min. The cells were washed twice with plating medium and plated on multiwell-plates (1.5×10^5 cells per ml) using the following defined medium: F-12/DMEM/BGJ(6:3:1) (Gibco: 430-1700/430-1600/320-2591) with 2 g BSA/L., 2.38 g Hepes/L.,50 mg Gentamycin/L (Schering Co.). The medium in each well was supplemented either with the novel peptide or natural GRF(1-44)-NH2 (SEQ ID NO: 1-NH2) at concentrations ranging from 3.1 to 200 fmol. per ml. of medium. Control wells contained no supplement. Plating was done with this medium added with 2% fetal calf serum to ensure rapid fixation of the cells. On the fourth day the cells were washed twice with the defined medium without fetal calf serum. Finally […] of defined medium was added to each well plus […] of the same medium containing each individual treatment, in triplicate. After 3 hours of incubation the medium was collected and diluted as required to conduct radioimmunoassay (RIA) for rat growth hormone. RIAs were conducted using Sinha's anti-murine GH immune serum and procedures according to the National Pituitary Agency using protein A to precipitate antibody antigen complex.

Series [1] can be described thus: Half-life stability of GRF analogs in aqueous solution by reverse phase HPLC. The class given is physicochemical. As to conditions: aqueous buffer pH 7.40 (0.25M Na2HPO4/H3PO4, 1.0 mM NaN3), 37° C., 0.15 mg/mL. The protocol: Half-life stability of GRF analogs in aqueous solution was determined by reverse phase HPLC at 37° C. GRF analogs were prepared as described above. GRF analogs were dissolved in […] of H2 O and then taken up in 1.0 mL of buffer solution (pH 7.40) containing 0.25M Na2 HPO4 /H3 PO4 and 1.0 mM NaN3. The concentration of the GRF analogs was 0.15 mg/mL. The HPLC system was a Laboratory Data Control (LDC) HPLC with a Waters C-18 column (3.9×300 mm, 10μ). The detector was a LDC Spectromonitor III and the gradient delivery system was a Constametric II. Mobile phase--(A) 0.025% TFA in H2 O, (B) 0.025% TFA in acetonitrile. Gradient was 0-37% (B) in 15 minutes for SEQ ID NO: 8-NH2 where Xaa^1 is desNH2 Tyr and Xaa^2 is D-Ala and SEQ ID NO: 9-NH2 where Xaa^1 is desNH2 Tyr and Xaa^2 is D-Ala; 0-35% (B) in 15 minutes for SEQ ID NO: 35-NH2 where Xaa^1 is desNH2 Tyr and Xaa^2 is D-Ala; and 0-36% (B) in 15 minutes for SEQ ID NO: 10-NH2 where Xaa^1 is desNH2 Tyr and Xaa^2 is D-Ala. Flow rate for all gradients was 2 ml/minute. Detection was at 206 nm using a UV detector.

Where a SMILES comes first, the peptide text is derived from it. Where no end group is shown, it is not given here. [ ]: non-standard residue; d: D form. The star is where a group is joined. Desaminotyrosyl = O=C(CCc1ccc(O)cc1)*

Take “HVDAIFTQSYRKVLAQLSARKLLQDILSRQQG [SEQ ID NO: 13-OH]”: the “Potency of GRF Analogs Relative to GRF(1-44)-NH2 (SEQ ID NO: 1-NH2)” value with rat pituitary cells turned out to be 2.79.

Turning to `CC[C@H](C)[C@H](NC(=O)[C@H](C)NC(=O)[C@H](CC(=O)O)NC(=O)[C@@H](C)NC(=O)[C@@H](N)Cc1c[nH]cn1)C(=O)N[C@@H](Cc1ccccc1)C(=O)N[C@H](C(=O)N[C@@H](CCC(N)=O)C(=O)N[C@@H](CO)C(=O)N[C@@H](Cc1ccc(O)cc1)C(=O)N[C@@H](CCCNC(=N)N)C(=O)N[C@@H](CCCCN)C(=O)N[C@H](C(=O)N[C@@H](CC(C)C)C(=O)N[C@@H](C)C(=O)N[C@@H](CCC(N)=O)C(=O)N[C@@H](CC(C)C)C(=O)N[C@@H](CO)C(=O)N[C@@H](C)C(=O)N[C@@H](CCCNC(=N)N)C(=O)N[C@@H](CCCCN)C(=O)N[C@@H](CC(C)C)C(=O)N[C@@H](CC(C)C)C(=O)N[C@@H](CCC(N)=O)C(=O)N[C@@H](CC(=O)O)C(=O)N[C@H](C(=O)N[C@@H](CC(C)C)C(=O)N[C@@H](CO)C(=O)N[C@@H](CCCNC(=N)N)C(=O)N[C@@H](CCC(N)=O)C(=O)N[C@@H](CCC(N)=O)C(=O)NCC(=O)O)[C@@H](C)CC)C(C)C)[C@@H](C)O` [SEQ ID NO: 17-OH] (H-H[dA]DAIFTQSYRKVLAQLSARKLLQDILSRQQG-OH), the “Potency of GRF Analogs Relative to GRF(1-44)-NH2 (SEQ ID NO: 1-NH2)” value in the series on rat pituitary cells is listed as 3.23.

Turning to “HADAIFTQSYRKVLAQLSARKLLQDILSRQQG [SEQ ID NO: 23-OH]”, the “Potency of GRF Analogs Relative to GRF(1-44)-NH2 (SEQ ID NO: 1-NH2)” value in the series on rat pituitary cells worked out at 2.96.

`CC[C@H](C)[C@H](NC(=O)[C@H](C)NC(=O)[C@H](CC(=O)O)NC(=O)[C@@H](C)NC(=O)CCc1ccc(O)cc1)C(=O)N[C@@H](Cc1ccccc1)C(=O)N[C@H](C(=O)N[C@H](C(=O)N[C@@H](CO)C(=O)N[C@@H](Cc1ccc(O)cc1)C(=O)N[C@@H](CCCNC(=N)N)C(=O)N[C@@H](CCCCN)C(=O)N[C@H](C(=O)N[C@@H](CC(C)C)C(=O)N[C@@H](C)C(=O)N[C@@H](CCC(N)=O)C(=O)N[C@@H](CC(C)C)C(=O)N[C@@H](CO)C(=O)N[C@@H](C)C(=O)N[C@@H](CCCNC(=N)N)C(=O)N[C@@H](CCCCN)C(=O)N[C@@H](CC(C)C)C(=O)N[C@@H](CC(C)C)C(=O)N[C@@H](CCC(N)=O)C(=O)N[C@@H](CC(=O)O)C(=O)N[C@H](C(=O)N[C@@H](CCSC)C(=O)N[C@@H](CO)C(=O)N[C@@H](CCCNC(=N)N)C(N)=O)[C@@H](C)CC)C(C)C)[C@@H](C)O)[C@@H](C)O` [SEQ ID NO: 8-NH2] (Desaminotyrosyl-[dA]DAIFTTSYRKVLAQLSARKLLQDIMSR-NH2): in series [1], the “HALF-LIFE t(1/2)” value stood at 169 h. In addition, in the series with rat pituitary cells, the “Potency of GRF Analogs Relative to GRF(1-44)-NH2 (SEQ ID NO: 1-NH2)” value is given as 3.77.

Regarding `CC[C@H](C)[C@H](NC(=O)[C@H](C)NC(=O)[C@H](CC(=O)O)NC(=O)[C@@H](C)NC(=O)CCc1ccc(O)cc1)C(=O)N[C@@H](Cc1ccccc1)C(=O)N[C@H](C(=O)N[C@@H](CO)C(=O)N[C@@H](CO)C(=O)N[C@@H](Cc1ccc(O)cc1)C(=O)N[C@@H](CCCNC(=N)N)C(=O)N[C@@H](CCCCN)C(=O)N[C@H](C(=O)N[C@@H](CC(C)C)C(=O)N[C@@H](C)C(=O)N[C@@H](CCC(N)=O)C(=O)N[C@@H](CC(C)C)C(=O)N[C@@H](CO)C(=O)N[C@@H](C)C(=O)N[C@@H](CCCNC(=N)N)C(=O)N[C@@H](CCCCN)C(=O)N[C@@H](CC(C)C)C(=O)N[C@@H](CC(C)C)C(=O)N[C@@H](CCC(N)=O)C(=O)N[C@@H](CC(=O)O)C(=O)N[C@H](C(=O)N[C@@H](CCSC)C(=O)N[C@@H](CO)C(=O)N[C@@H](CCCNC(=N)N)C(N)=O)[C@@H](C)CC)C(C)C)[C@@H](C)O` [SEQ ID NO: 9-NH2] (Desaminotyrosyl-[dA]DAIFTSSYRKVLAQLSARKLLQDIMSR-NH2), the “Potency of GRF Analogs Relative to GRF(1-44)-NH2 (SEQ ID NO: 1-NH2)” value in the series on rat pituitary cells stood at 3.55.

Take “HVDAIFTQSYRKVLAQLSARKLLQDILNRQQG [SEQ ID NO: 14-OH]”: the “Potency of GRF Analogs Relative to GRF(1-44)-NH2 (SEQ ID NO: 1-NH2)” value with rat pituitary cells stood at 3.11.

In the case of `CC[C@H](C)[C@H](NC(=O)[C@H](C)NC(=O)[C@H](CC(=O)O)NC(=O)[C@H](C)NC(=O)[C@@H](N)Cc1ccc(O)cc1)C(=O)N[C@@H](Cc1ccccc1)C(=O)N[C@H](C(=O)N[C@@H](CC(N)=O)C(=O)N[C@@H](CO)C(=O)N[C@@H](Cc1ccc(O)cc1)C(=O)N[C@@H](CCCNC(=N)N)C(=O)N[C@@H](CCCCN)C(=O)N[C@H](C(=O)N[C@@H](CC(C)C)C(=O)NCC(=O)N[C@@H](CCC(N)=O)C(=O)N[C@@H](CC(C)C)C(=O)N[C@@H](CO)C(=O)N[C@@H](C)C(=O)N[C@@H](CCCNC(=N)N)C(=O)N[C@@H](CCCCN)C(=O)N[C@@H](CC(C)C)C(=O)N[C@@H](CC(C)C)C(=O)N[C@@H](CCC(N)=O)C(=O)N[C@@H](CC(=O)O)C(=O)N[C@H](C(=O)N[C@@H](CCSC)C(=O)N[C@@H](CO)C(=O)N[C@@H](CCCNC(=N)N)C(=O)N[C@@H](CCC(N)=O)C(=O)N[C@@H](CCC(N)=O)C(=O)NCC(=O)N[C@@H](CCC(=O)O)C(=O)N[C@@H](CO)C(=O)N[C@@H](CC(N)=O)C(=O)N[C@@H](CCC(N)=O)C(=O)N[C@@H](CCC(=O)O)C(=O)N[C@@H](CCCNC(=N)N)C(=O)NCC(=O)N[C@@H](C)C(=O)N[C@@H](CCCNC(=N)N)C(=O)N[C@@H](C)C(=O)N[C@@H](CCCNC(=N)N)C(=O)N[C@@H](CC(C)C)C(N)=O)[C@@H](C)CC)C(C)C)[C@@H](C)O` [SEQ ID NO: 1-NH2, GRF(1-44)-NH2, reference compound], the “Potency of GRF Analogs Relative to GRF(1-44)-NH2 (SEQ ID NO: 1-NH2)” value with rat pituitary cells is 1.00.

Regarding `CC[C@H](C)[C@H](NC(=O)[C@H](C)NC(=O)[C@H](CC(=O)O)NC(=O)[C@@H](C)NC(=O)CCc1ccc(O)cc1)C(=O)N[C@@H](Cc1ccccc1)C(=O)N[C@H](C(=O)N[C@@H](CCC(N)=O)C(=O)N[C@@H](CO)C(=O)N[C@@H](Cc1ccc(O)cc1)C(=O)N[C@@H](CCCNC(=N)N)C(=O)N[C@@H](CCCCN)C(=O)N[C@H](C(=O)N[C@@H](CC(C)C)C(=O)N[C@@H](C)C(=O)N[C@@H](CCC(N)=O)C(=O)N[C@@H](CC(C)C)C(=O)N[C@@H](CO)C(=O)N[C@@H](C)C(=O)N[C@@H](CCCNC(=N)N)C(=O)N[C@@H](CCCCN)C(=O)N[C@@H](CC(C)C)C(=O)N[C@@H](CC(C)C)C(=O)N[C@@H](CCC(N)=O)C(=O)N[C@@H](CC(=O)O)C(=O)N[C@H](C(=O)N[C@@H](CCSC)C(=O)N[C@@H](CO)C(=O)N[C@@H](CCCNC(=N)N)C(N)=O)[C@@H](C)CC)C(C)C)[C@@H](C)O` [SEQ ID NO: 10-NH2] (Desaminotyrosyl-[dA]DAIFTQSYRKVLAQLSARKLLQDIMSR-NH2), the “HALF-LIFE t(1/2)” value in series [1] worked out at 122 h. The “Potency of GRF Analogs Relative to GRF(1-44)-NH2 (SEQ ID NO: 1-NH2)” value with rat pituitary cells was found to be 4.57.

Turning to `CC[C@H](C)[C@H](NC(=O)[C@H](C)NC(=O)[C@H](CC(=O)O)NC(=O)[C@@H](C)NC(=O)CCc1ccc(O)cc1)C(=O)N[C@@H](Cc1ccccc1)C(=O)N[C@H](C(=O)N[C@@H](CCC(N)=O)C(=O)N[C@@H](CO)C(=O)N[C@@H](Cc1ccc(O)cc1)C(=O)N[C@@H](CCCNC(=N)N)C(=O)N[C@@H](CCCCN)C(=O)N[C@H](C(=O)N[C@@H](CC(C)C)C(=O)N[C@@H](C)C(=O)N[C@@H](CCC(N)=O)C(=O)N[C@@H](CC(C)C)C(=O)N[C@@H](CO)C(=O)N[C@@H](C)C(=O)N[C@@H](CCCNC(=N)N)C(=O)N[C@@H](CCCCN)C(=O)N[C@@H](CC(C)C)C(=O)N[C@@H](CC(C)C)C(=O)N[C@@H](CCC(N)=O)C(=O)N[C@@H](CC(=O)O)C(=O)N[C@H](C(=O)N[C@@H](CC(C)C)C(=O)N[C@@H](CO)C(=O)N[C@@H](CCCNC(=N)N)C(=O)N[C@@H](CCC(N)=O)C(=O)N[C@@H](CCC(N)=O)C(=O)NCC(=O)O)[C@@H](C)CC)C(C)C)[C@@H](C)O` [SEQ ID NO: 31-OH] (Desaminotyrosyl-[dA]DAIFTQSYRKVLAQLSARKLLQDILSRQQG-OH), in the series on rat pituitary cells, the “Potency of GRF Analogs Relative to GRF(1-44)-NH2 (SEQ ID NO: 1-NH2)” value was determined as 4.20.

(Values after patent US5846936A, “Growth hormone releasing factor analogs” (Roche Vitamins Inc., priority 1995, dated 1998).)
